Reference: ChEMBL document CHEMBL4000149, “The effect of glycine replacement with flexible ω-amino acids on the antimicrobial and haemolytic activity of an amphipathic cyclic heptapeptide” (Eur J Med Chem, 2015)
≈ marks a conversion by molar mass, not a printed value. Bridge positions count the residues as written; N and C are the ends. Square brackets hold non-standard residues; d marks the D form. Peptide text beside a SMILES is read from it. ξ: configuration not given here. 2Nal = N[C@@H](Cc1ccc2ccccc2c1)C(=O)O; Cha = N[C@@H](CC1CCCCC1)C(=O)O; ξAoc(2) = CCCCCCC(N)C(=O)O; Aoc = NCCCCCCCC(=O)O; ξDab = NCCC(N)C(=O)O; GABA = NCCCC(=O)O

Assays:
Staphylococcus aureus = assay: Antimicrobial activity against methicillin-resistant Staphylococcus aureus ATCC 33591 by tube dilution method; assay type: functional
Escherichia coli = assay: Antimicrobial activity against Escherichia coli ATCC 25922 by tube dilution method; assay type: functional
Enterococcus faecium = assay: Antimicrobial activity against vancomycin-resistant Enterococcus faecium ATCC 700221 by tube dilution method; assay type: functional
Klebsiella pneumoniae = assay: Antimicrobial activity against multidrug-resistant Klebsiella pneumoniae ATCC 700603 by tube dilution method; assay type: functional
Pseudomonas aeruginosa = assay: Antimicrobial activity against Pseudomonas aeruginosa ATCC 27853 by tube dilution method; assay type: functional
Candida albicans = assay: Antifungal activity against Candida albicans ATCC 200955 by tube dilution method; assay type: functional
Acinetobacter baumannii = assay: Antimicrobial activity against multidrug-resistant Acinetobacter baumannii ATCC BAA-1605 by tube dilution method; assay type: functional
[1] = Toxicity in human erythrocytes assessed as hemolysis after 1 hr; assay type: cell-based, Erythrocyte
[2] = Toxicity in human erythrocytes assessed as hemolysis at 150 uM after 1 hr; assay type: cell-based, Erythrocyte; conditions: read-out: Activity

| Structure (SMILES) | MIC (Staphylococcus aureus) [µM] | MIC (Escherichia coli) [µM] | MIC (Enterococcus faecium) [µM] | MIC (Klebsiella pneumoniae) [µM] | MIC (Pseudomonas aeruginosa) [µM] | MIC (Candida albicans) [µM] | MIC (Acinetobacter baumannii) [µM] | EC50 at 1 hr [1] [µM] | hemolysis at 1 h, 150 µM [2] [%] |
| --- | --- | --- | --- | --- | --- | --- | --- | --- | --- |
| CC(C)C[C@@H]1NC(=O)[C@H](Cc2ccc3ccccc3c2)NC(=O)[C@H](CCCNC(=N)N)NC(=O)[C@H](CC(C)C)NC(=O)[C@@H](N)CCCCNC(=O)[C@H](Cc2ccc3ccccc3c2)NC(=O)[C@H](CCCNC(=N)N)NC1=O (H-KLR[2Nal]LR[2Nal]; lactam 1-C) | 8 (≈ 8.49 µg/mL) | 32 (≈ 34 µg/mL) | 4 (≈ 4.25 µg/mL) | 32 (≈ 34 µg/mL) | 32 (≈ 34 µg/mL) | 8 (≈ 8.49 µg/mL) | 32 (≈ 34 µg/mL) | 150 | 51 |
| CC[C@H](C)[C@@H]1NC(=O)[C@H](Cc2ccc3ccccc3c2)NC(=O)[C@H](CCCNC(=N)N)NC(=O)[C@H]([C@@H](C)O)NC(=O)CCCCCCCNC(=O)[C@H](Cc2ccc3ccccc3c2)NC(=O)[C@H](CCCNC(=N)N)NC1=O (cyclo([2Nal][Aoc]TR[2Nal]IR)) | 32 (≈ 34 µg/mL) | 128 (≈ 136 µg/mL) | 16 (≈ 17 µg/mL) | > 128 | > 128 | 64 (≈ 68 µg/mL) | 128 (≈ 136 µg/mL) | > 150 | 10 |
| CC(C)C[C@@H]1NC(=O)CNC(=O)[C@H](Cc2ccc3ccccc3c2)NC(=O)[C@H](CCCCN)NC(=O)[C@H](CC(C)C)NC(=O)[C@H](Cc2ccc3ccccc3c2)NC(=O)[C@H](CCCCN)NC1=O (cyclo([2Nal]GLK[2Nal]LK)) | 32 (≈ 29.9 µg/mL) | 128 (≈ 120 µg/mL) | 16 (≈ 14.9 µg/mL) | > 128 | 128 (≈ 120 µg/mL) | 64 (≈ 59.8 µg/mL) | > 128 | > 150 | 13 |
| CC(C)C[C@@H]1NC(=O)C(N)CCNC(=O)CCCNC(=O)[C@H](Cc2ccc3ccccc3c2)NC(=O)[C@H](CCCNC(=N)N)NC(=O)[C@H](CC(C)C)NC(=O)[C@H](Cc2ccc3ccccc3c2)NC(=O)[C@H](CCCNC(=N)N)NC1=O (some centres not stated) (H-[ξDab]LR[2Nal]LR[2Nal][GABA]; lactam 1-C) | 8 (≈ 8.95 µg/mL) | 32 (≈ 35.8 µg/mL) | 8 (≈ 8.95 µg/mL) | 64 (≈ 71.6 µg/mL) | 64 (≈ 71.6 µg/mL) | 32 (≈ 35.8 µg/mL) | 64 (≈ 71.6 µg/mL) | 420 | < 8 |
| CCCCCCC1NC(=O)CNC(=O)[C@H](Cc2ccc3ccccc3c2)NC(=O)[C@H](CCCNC(=N)N)NC(=O)[C@H](CC(C)C)NC(=O)[C@H](Cc2ccc3ccccc3c2)NC(=O)[C@H](CCCNC(=N)N)NC1=O (some centres not stated) (cyclo([2Nal]G[ξAoc(2)]R[2Nal]LR)) | 32 (≈ 32.6 µg/mL) | 32 (≈ 32.6 µg/mL) | 32 (≈ 32.6 µg/mL) | 64 (≈ 65.2 µg/mL) | 128 (≈ 130 µg/mL) | 64 (≈ 65.2 µg/mL) | 128 (≈ 130 µg/mL) | 55 | 100 |
| CC(C)C[C@@H]1NC(=O)CNC(=O)[C@H](Cc2ccc3ccccc3c2)NC(=O)[C@H](CCCNC(=N)N)NC(=O)[C@H](CC2CCCCC2)NC(=O)[C@H](Cc2ccc3ccccc3c2)NC(=O)[C@H](CCCNC(=N)N)NC1=O (cyclo([2Nal][Cha]R[2Nal]GLR)) | 8 (≈ 8.24 µg/mL) | 16 (≈ 16.5 µg/mL) | 16 (≈ 16.5 µg/mL) | 64 (≈ 65.9 µg/mL) | 128 (≈ 132 µg/mL) | 16 (≈ 16.5 µg/mL) | 64 (≈ 65.9 µg/mL) | 60 | 96 |
| CCCCCCC1NC(=O)[C@@H](Cc2ccc3ccccc3c2)NC(=O)[C@H](CCCNC(=N)N)NC(=O)[C@H](CC(C)C)NC(=O)CNC(=O)[C@H](Cc2ccc3ccccc3c2)NC(=O)[C@H](CCCNC(=N)N)NC1=O (some centres not stated) | 8 (≈ 8.15 µg/mL) | 32 (≈ 32.6 µg/mL) | 8 (≈ 8.15 µg/mL) | 64 (≈ 65.2 µg/mL) | 64 (≈ 65.2 µg/mL) | 16 (≈ 16.3 µg/mL) | 64 (≈ 65.2 µg/mL) | 55 | 92 |
| CC(C)C[C@@H]1NC(=O)CNC(=O)[C@H](Cc2ccc3ccccc3c2)NC(=O)[C@H](CCCNC(=N)N)NC(=O)[C@H](CC(C)C)NC(=O)[C@H](Cc2ccc3ccccc3c2)NC(=O)[C@H](CCCNC(=N)N)NC1=O | 8 (≈ 7.92 µg/mL) | 32 (≈ 31.7 µg/mL) | 8 (≈ 7.92 µg/mL) | 128 (≈ 127 µg/mL) | 64 (≈ 63.4 µg/mL) | 16 (≈ 15.8 µg/mL) | 128 (≈ 127 µg/mL) | 215 | 27 |
